Consider 48 molecules from ChEMBL document CHEMBL1921784, “Benzobistriazinones and related heterocyclic ring systems as potent, orally bioavailable positive allosteric AMPA receptor modulators” (Bioorg Med Chem Lett, 2011).

Usually half-life stands for the time needed for the level to fall by half in the phase considered. What is called bioavailability is the share of a dose that reaches the circulation, judged against a reference dose that is usually intravenous.

The source made the active and inactive calls.

For data set [1], the species on record is Rattus norvegicus. Nature of the data set: Positive allosteric modulation of AMPA receptor in Sprague-Dawley rat embryonic hippocampal neuron assessed as concentration required to double the steady-state glutamate-induced current by patch-clamp assay. The conditions noted are these: Hippocampus.
Data set [2] concerns Rattus norvegicus. Nature of the data set: Positive allosteric modulation of AMPA receptor in Sprague-Dawley rat adult hippocampus dentate gyrus assessed as increase in field excitatory postsynaptic potential amplitude at 3 mg/kg, ip infused for 30 mins relative to baseline. The class given is functional. The conditions noted are these: route intraperitoneal.
Data set [3] has as its system Rattus norvegicus. Nature of the data set: Positive allosteric modulation of AMPA receptor in Sprague-Dawley rat adult hippocampus dentate gyrus assessed as increase in field excitatory postsynaptic potential amplitude at 5 mg/kg, ip infused for 30 mins relative to baseline. Type of data set: functional.
Data set [4] relates to Rattus norvegicus. Nature of the data set: Positive allosteric modulation of AMPA receptor in Sprague-Dawley rat adult hippocampus dentate gyrus assessed as increase in field excitatory postsynaptic potential amplitude at 10 mg/kg, ip infused for 30 mins relative to baseline. The conditions noted are these: route intraperitoneal. The class given is functional.
Data set [5] has as its system Rattus norvegicus. Nature of the data set: Positive allosteric modulation of AMPA receptor in Sprague-Dawley rat adult hippocampus dentate gyrus assessed as increase in field excitatory postsynaptic potential amplitude at 1 mg/kg, ip infused for 30 mins relative to baseline. The class given is functional. The following applies: route intraperitoneal.
The test system of data set [6] is Rattus norvegicus. Nature of the data set: Positive allosteric modulation of AMPA receptor in Sprague-Dawley rat adult hippocampus dentate gyrus assessed as increase in field excitatory postsynaptic potential amplitude at 20 mg/kg, ip infused for 30 mins relative to baseline. The class given is functional. The following applies: route intraperitoneal.
Data set [7] is described as follows: Half life in rat. Type of data set: ADME, organism-based. The conditions noted are these: in vivo.
The nature of data set [8]: Half life in dog. The class given is ADME, organism-based, Canis lupus familiaris. The following applies: in vivo.
The nature of data set [9]: Oral bioavailability in cynomolgus monkey. Type of data set: ADME, organism-based, Macaca fascicularis. The conditions noted are these: in vivo.
Data set [10] is described as follows: Half life in cynomolgus monkey. The conditions noted are these: in vivo. Type of data set: ADME, organism-based, Macaca fascicularis.
A short description of data set [11]: Oral bioavailability in rat. The class given is ADME, organism-based. The conditions noted are these: in vivo.

As to `C[C@H](Cn1nccn1)n1nnc2cc3c(=O)n([C@H](C)Cn4ncnn4)nnc3cc2c1=O`, the CD in [1] was found to be 0.07 µM. Also, the Activity in data set [2] is on record as 26%.

Turning to `C[C@H](Cn1ncnn1)n1cnc2cc3c(=O)n([C@H](C)Cn4ncnn4)cnc3cc2c1=O`, in data set [1], the CD amounted to 0.03 µM. In addition, the Activity in data set [3] (route intraperitoneal) was determined as 0%.

Turning to `O=c1c2cc3nnn(C4CC4)c(=O)c3cc2nnn1CCn1ncnn1`, in [3] (route intraperitoneal), the Activity came to 1%.

With `C[C@H](Cn1nccn1)n1cnc2cc3c(=O)n(C4CC4)nnc3cc2c1=O`, the Activity in [4] came out at 9%.

For `C#CCn1nnc2cc3c(=O)n([C@H](C)Cn4ncnn4)nnc3cc2c1=O`, the CD in data set [1] is 0.57 µM. For the same molecule, the Activity in [3] (route intraperitoneal) worked out at 20%.

Turning to `C[C@H](Cn1ncnn1)n1nnc2cc3c(=O)n(C)nnc3cc2c1=O`, the CD in [1] amounted to 0.28 µM. In addition, the Activity in data set [3] (route intraperitoneal) was 46%.

Regarding `C[C@H](Cn1nccn1)n1nnc2cc3c(=O)n([C@H](C)Cn4nccn4)nnc3cc2c1=O`, the CD in data set [1] was determined as 0.4 µM. Besides, in [3] (route intraperitoneal), the Activity came out at 9%.

Consider `C[C@H](Cn1ncnn1)n1cnc2cc3c(=O)n([C@H](C)Cn4cnnn4)nnc3cc2c1=O`, for which the CD in data set [1] turned out to be 0.02 µM. Also, in data set [3] (route intraperitoneal), the Activity is 1%.

With `C[C@H](Cn1ncnn1)n1cnc2cc3c(=O)n(C)nnc3cc2c1=O`, in [3] (route intraperitoneal), the Activity was 63%.

As to `C#C[C@H](Cc1cccc(F)c1)n1nnc2cc3c(=O)n(C4CC4)nnc3cc2c1=O`, in [1], the CD was found to be 0.45 µM. The Activity in [3] (route intraperitoneal) turned out to be 1%.

Regarding `C[C@H](Cn1ncnn1)n1cnc2cc3c(=O)n(CCF)nnc3cc2c1=O`, in [4], the Activity turned out to be 32%.

Turning to `C[C@H](Cn1ccnn1)n1nnc2cc3c(=O)n(C4CC4)nnc3cc2c1=O`, in [4], the Activity was 24%. Besides, the CD in data set [1] came to 0.37 µM.

For `C[C@H](Cn1ncnn1)n1cnc2cc3c(=O)n(C4CC4)cnc3cc2c1=O`, the CD in data set [1] came out at 1.4 µM. For the same molecule, the Activity in [3] (route intraperitoneal) is reported as 2%.

In the case of `C#CCn1nnc2cc3c(=O)n([C@H](C)Cn4ncnn4)cnc3cc2c1=O`, the CD in data set [1] was found to be 0.5 µM. In addition, the Activity in data set [3] (route intraperitoneal) was 11%.

For the molecule `C[C@H](Cn1ncnn1)n1nnc2cc3c(=O)n([C@H](C)Cn4ncnn4)nnc3cc2c1=O`, the CD in [1] worked out at 0.016 µM. Besides, the Activity in data set [5] turned out to be 59%.

In the case of `C[C@H](Cn1cnnn1)n1nnc2cc3c(=O)n(C4CC4)nnc3cc2c1=O`, the CD in data set [1] was determined as 0.07 µM. In addition, the Activity in data set [3] (route intraperitoneal) came to 11%.

`C[C@H](Cn1ncnn1)n1cnc2cc3c(=O)n(CC(F)(F)F)nnc3cc2c1=O`: in [4], the Activity came to 7%.

For the molecule `C[C@H](Cn1cnnn1)n1nnc2cc3c(=O)n(C)nnc3cc2c1=O`, in [1], the CD came to 0.08 µM. In data set [3] (route intraperitoneal), the Activity is listed as 19%.

For the molecule `O=c1c2cc3nnn(C4CC4)c(=O)c3cc2ncn1CCn1ncnn1`, the Activity in data set [3] (route intraperitoneal) is recorded as 7%.

`C[C@H](Cn1cccn1)n1cnc2cc3c(=O)n([C@H](C)Cn4cccn4)cnc3cc2c1=O`: in [1], the CD turned out to be 0.09 µM. The Activity in [3] (route intraperitoneal) was 2%.

On to `C[C@H](Cn1nccn1)n1nnc2cc3c(=O)n(C)nnc3cc2c1=O`, for which the CD in [1] amounted to 2.1 µM. The Activity in data set [3] (route intraperitoneal) is reported as 7%.

Take `C#C[C@H](Cn1ncnn1)n1nnc2cc3c(=O)n(C4CC4)nnc3cc2c1=O`: the Activity in [3] (route intraperitoneal) is given as 4%.

As to `C[C@H](Cn1ccnn1)n1cnc2cc3c(=O)n(C)nnc3cc2c1=O`, the Activity in [6] was 5%.

On to `C[C@H](Cn1cc(C#N)cn1)n1cnc2cc3c(=O)n(C4CC4)nnc3cc2c1=O`, for which the Activity in [3] (route intraperitoneal) is 2%.

As to `C[C@H](Cn1cccn1)n1cnc2cc3c(=O)n(C4CC4)nnc3cc2c1=O`, in data set [4], the Activity is 20%.

On to `C[C@H](Cn1cnnn1)n1cnc2cc3c(=O)n(C4CC4)nnc3cc2c1=O`, for which the CD in [1] was 0.07 µM. In [3] (route intraperitoneal), the Activity is 2%.

`COCCn1nnc2cc3c(=O)n([C@H](C)Cn4ncnn4)nnc3cc2c1=O`: the Activity in data set [3] (route intraperitoneal) amounted to 34%.

Regarding `CCn1nnc2cc3c(=O)n([C@H](C)Cn4ncnn4)nnc3cc2c1=O`, the CD in [1] turned out to be 0.3 µM. Also, the Activity in data set [3] (route intraperitoneal) was found to be 34%.

In turn, `C[C@H](Cn1ncnn1)n1nnc2cc3c(cc2c1=O)OCN(C1CC1)C3=O` gave a half-life in data set [7] of 0.27 h.

Regarding `C[C@H](Cn1ncnn1)n1cnc2cc3c(=O)n([C@H](C)Cn4ncnn4)nnc3cc2c1=O`, in data set [1], the CD turned out to be 0.008 µM. Also, in data set [5], the Activity is 43%.

For the molecule `C[C@H](Cn1cncn1)n1nnc2cc3c(=O)n(C4CC4)nnc3cc2c1=O`, the CD in data set [1] came out at 1.1 µM. Also, the Activity in [3] (route intraperitoneal) came to 7%.

For the molecule `C[C@H](Cn1nccn1)n1nnc2cc3c(=O)n(C4CC4)nnc3cc2c1=O`, the Activity in data set [4] was 12%. Besides, the CD in data set [1] was 1.3 µM.

Turning to `C[C@H](CNS(C)(=O)=O)n1nnc2cc3c(=O)n(C4CC4)nnc3cc2c1=O`, the CD in [1] was determined as 0.7 µM. The outcome in data set [3] was inactive.

For the molecule `Cc1nnnn1C[C@@H](C)n1nnc2cc3c(=O)n(C4CC4)nnc3cc2c1=O`, the CD in [1] is 0.25 µM. The Activity in data set [3] (route intraperitoneal) is recorded as 8%.

`C[C@H](Cn1ncnn1)n1nnc2cc3c(=O)n(C4CC4)nnc3cc2c1=O`: the half-life is 3 h in [8], 1.7 h in [7] and 9.5 h in data set [10]. Also, the CD in data set [1] worked out at 0.28 µM. In addition, the bioavailability in data set [9] and in data set [11] was 100% each time. Besides, in data set [3] (route intraperitoneal), the Activity stood at 37%.

In the case of `C[C@H](Cn1ncnn1)n1cnc2cc3c(=O)n(C4CC4)nnc3cc2c1=O`, the values for the half-life in data set [8] and in data set [7] were 4.8 h and 1.6 h, respectively. Also, the CD in [1] worked out at 0.6 µM. The same molecule showed a bioavailability in [11] of 100%. Also, the Activity in data set [3] (route intraperitoneal) came out at 33%.

On to `C[C@H](Cn1ccnn1)n1nnc2cc3c(=O)n(C)nnc3cc2c1=O`, for which the CD in data set [1] came to 0.09 µM. Further, in [3] (route intraperitoneal), the Activity was 7%.

On to `C[C@H](Cn1nccn1)n1cnc2cc3c(=O)n(C)nnc3cc2c1=O`, for which the Activity in [6] was 30%.

For the molecule `Cc1nnn(C[C@@H](C)n2nnc3cc4c(=O)n(C5CC5)nnc4cc3c2=O)n1`, the CD in [1] was 3.1 µM. Besides, the Activity in [3] (route intraperitoneal) is recorded as 7%.

Consider `C[C@H](Cn1ncc(C#N)n1)n1nnc2cc3c(=O)n(C4CC4)nnc3cc2c1=O`, for which the Activity in data set [3] (route intraperitoneal) was found to be 17%.

For `C[C@H](Cn1ncc(C#N)n1)n1cnc2cc3c(=O)n(C4CC4)nnc3cc2c1=O`, in data set [4], the Activity came out at 3%.

In the case of `CC(C)n1nnc2cc3c(=O)n([C@H](C)Cn4ncnn4)nnc3cc2c1=O`, the CD in data set [1] was 0.44 µM. Further, the Activity in data set [3] (route intraperitoneal) was determined as 26%.

Regarding `C#CCn1nnc2cc3c(=O)n([C@H](C)Cn4cnnn4)cnc3cc2c1=O`, the CD in data set [1] worked out at 0.25 µM. For the same molecule, in data set [3] (route intraperitoneal), the Activity was 1%.

As for `C[C@H](Cn1ccnn1)n1nnc2cc3c(=O)n([C@H](C)Cn4ccnn4)nnc3cc2c1=O`, the CD in [1] turned out to be 0.06 µM. Besides, the Activity in [2] was 0%.

Regarding `C=CCn1nnc2cc3c(=O)n([C@H](C)Cn4ncnn4)nnc3cc2c1=O`, the Activity in data set [3] (route intraperitoneal) came to 12%.

For the molecule `CC#CCn1nnc2cc3c(=O)n([C@H](C)Cn4ncnn4)nnc3cc2c1=O`, the Activity in data set [3] (route intraperitoneal) is reported as 43%.

For the molecule `C[C@H](Cn1ncnn1)n1cnc2cc3c(=O)n(CC(F)F)nnc3cc2c1=O`, in data set [6], the Activity is listed as 16%.

`C[C@H](Cn1ncnn1)n1nnc2cc3c(=O)n(C4CC4)cnc3cc2c1=O`: the CD in data set [1] is 1 µM. For the same molecule, in data set [3] (route intraperitoneal), the Activity came out at 16%.
